Results published in patent publication US20030215462A1, “Use of UGT inhibitors to increase bioavailability” (priority 2001, published 2003).
Where “and” joins values, the source holds several entries; their conditions need not be identical. Equal entries are not always repeated.

How the values were obtained:
UGT1A10 = molecular target: T1, UGT1A10 (Homo sapiens, UniProt Q9HAW8); assay: Inhibition of raloxifene glucuronidation by recombinant UGT1A10 Bacculosomes
T1 sequence (Q9HAW8 26-530): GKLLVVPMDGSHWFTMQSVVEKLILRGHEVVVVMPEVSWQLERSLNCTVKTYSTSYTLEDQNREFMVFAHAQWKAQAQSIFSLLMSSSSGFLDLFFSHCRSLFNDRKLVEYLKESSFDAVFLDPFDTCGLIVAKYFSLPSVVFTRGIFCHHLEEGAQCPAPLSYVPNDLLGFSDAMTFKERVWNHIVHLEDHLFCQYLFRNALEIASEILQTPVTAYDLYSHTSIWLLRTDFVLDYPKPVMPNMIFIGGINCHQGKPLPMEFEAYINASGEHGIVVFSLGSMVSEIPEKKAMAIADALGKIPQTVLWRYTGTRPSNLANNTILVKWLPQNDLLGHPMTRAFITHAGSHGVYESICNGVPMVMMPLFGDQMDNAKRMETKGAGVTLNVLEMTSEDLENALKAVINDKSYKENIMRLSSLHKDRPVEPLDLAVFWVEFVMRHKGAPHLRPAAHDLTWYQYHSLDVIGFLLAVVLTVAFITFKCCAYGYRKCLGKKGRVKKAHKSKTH
Description: (§2) Compounds were eluted using a binary solvent gradient system. Solvent A was water brought to pH 8 with NH4OH. Solvent B was methanol. Solvent flow rate was 1 ml/min and the column temperature was maintained at 50° C. Detection was at 280 nm. […] The system was then returned to the initial conditions and equilibrated for 3 min.

UGT1A8 = molecular target: T2, UGT1A8 (Homo sapiens, UniProt Q9HAW9); assay: Inhibition of raloxifene glucuronidation by recombinant UGT1A8 Supersomes; conditions: for activity at 15 min, 50 µM / activity at 15 min, 10 µM: human, Supersomes with recombinant human UGT1A8, pH 7.5, probe raloxifene 50 μM; for activity at 15 min, 10 µM: inhibitor 10 μM
T2 sequence (Q9HAW9 26-530): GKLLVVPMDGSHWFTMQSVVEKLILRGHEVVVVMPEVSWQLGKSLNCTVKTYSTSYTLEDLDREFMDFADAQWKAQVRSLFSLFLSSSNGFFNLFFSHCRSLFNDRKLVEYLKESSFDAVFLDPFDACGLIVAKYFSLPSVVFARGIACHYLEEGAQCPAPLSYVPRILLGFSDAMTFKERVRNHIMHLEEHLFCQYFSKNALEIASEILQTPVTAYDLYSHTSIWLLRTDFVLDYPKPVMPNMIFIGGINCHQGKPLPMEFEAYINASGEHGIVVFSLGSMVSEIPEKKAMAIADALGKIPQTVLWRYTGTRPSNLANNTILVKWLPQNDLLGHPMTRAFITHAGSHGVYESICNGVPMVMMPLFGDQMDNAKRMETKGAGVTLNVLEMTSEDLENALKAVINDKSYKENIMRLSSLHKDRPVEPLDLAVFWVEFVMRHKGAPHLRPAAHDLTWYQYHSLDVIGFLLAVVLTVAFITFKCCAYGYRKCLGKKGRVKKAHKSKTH
Description: as §2

[1] = system: UGT enzymes of pooled human jejunum microsomes; assay: Inhibition of raloxifene glucuronidation (G1, G2) in pooled human jejunum microsomes; format: biochemical; conditions: jejunum HJ61
Description: Compounds were eluted using a binary solvent gradient system. […] Solvent B was methanol. […] Detection was at 280 nm.
Standardized incubations utilized […] microsomal protein, 1 mM UDPGA and a 30 min incubation time.

[2] = molecular target: T3, UGT enzymes of human liver microsomes (Homo sapiens, UniProt P16662); assay: Inhibition of zidovudine glucuronidation in human liver microsomes; format: biochemical; conditions: liver lot 062101
T3 construct: residual metabolism (percentage of control), zidovudine glucuronidation; other: liver lot 062101; residual metabolism (percentage of control), zidovudine glucuronidation; residual metabolism (percentage of control)
T3 sequence (P16662 1-529): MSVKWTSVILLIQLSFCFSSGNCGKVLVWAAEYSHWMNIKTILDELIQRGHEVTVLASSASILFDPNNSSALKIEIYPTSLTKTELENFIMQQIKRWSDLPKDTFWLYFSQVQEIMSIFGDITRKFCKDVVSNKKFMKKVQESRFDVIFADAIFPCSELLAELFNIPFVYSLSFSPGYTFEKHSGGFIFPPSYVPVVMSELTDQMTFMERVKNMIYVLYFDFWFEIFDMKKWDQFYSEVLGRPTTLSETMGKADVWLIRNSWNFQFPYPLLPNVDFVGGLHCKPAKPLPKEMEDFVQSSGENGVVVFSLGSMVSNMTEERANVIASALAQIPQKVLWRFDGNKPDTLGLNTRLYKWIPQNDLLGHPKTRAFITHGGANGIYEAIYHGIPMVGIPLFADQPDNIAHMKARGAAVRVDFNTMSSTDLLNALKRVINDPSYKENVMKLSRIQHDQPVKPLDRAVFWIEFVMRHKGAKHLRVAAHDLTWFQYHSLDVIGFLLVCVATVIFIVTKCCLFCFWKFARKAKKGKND
Description: Compounds were eluted using a binary solvent gradient system where solvent A was dilute phosphoric acid (pH 3) and solvent B was acetonitrile.
Standardized incubations utilized 500 μM zidovudine substrate, 1 mg/ml microsomal protein, 5 mM UDPGA and a 30 min incubation time. […] Int.

[3] = system: T4, UGT enzymes of human liver microsomes; assay: Inhibition of estradiol (E2) glucuronidation in human liver microsomes; format: biochemical; conditions: liver 032101, E2 50 μM
T4 construct: residual metabolism (% of control), E2-17-β-D-glucuronide; other: liver 032101; residual metabolism (% of control), E2-17-β-D-glucuronide
From the text: (§1) Compounds were eluted using a binary solvent gradient system where solvent A was dilute phosphoric acid (pH 3) and solvent B was 80:20 acetonitrile-methanol. […] Detection was at 280 nm.

[4] = system: UGT enzymes of human liver microsomes; assay: as above; format: biochemical; conditions: E2 50 μM
From the text: as §1

[5] = system: T5, UGT enzymes of human liver microsomes; assay: as above; format: biochemical; conditions: liver 032101, E2 50 μM
T5 construct: residual metabolism (% of control), E2-3-β-D-glucuronide; other: liver 032101; residual metabolism (% of control), E2-3-β-D-glucuronide
From the text: as §1

[6] = system: T6, UGT enzymes of human liver microsomes; assay: Inhibition of 2ME2 glucuronidation (MG1, MG2) in human liver microsomes; format: biochemical; conditions: liver 062101, 2ME2 50 μM
T6 construct: other: liver 062101
From the text: as §1

[7] = human, Bacculosomes with recombinant human UGT1A10, pH 7.5, probe raloxifene 50 μM, formation of glucuronide G1, % of control metabolism, raloxifene G1, UGT1A10, inhibitor 50 μM
[8] = human, Bacculosomes with recombinant human UGT1A10, pH 7.5, probe raloxifene 50 μM, formation of glucuronide G2, % of control metabolism, raloxifene G2, UGT1A10, inhibitor 50 μM

SMILES | % of control metabolism, raloxifene G1 ([1]; inhibitor 50 μM) | % of control metabolism, raloxifene G2 ([1]; inhibitor 50 μM) | residual metabolism (percentage of control), zidovudine glucuronidation ([2]; inhibitor 50 μM) | residual metabolism (percentage of control), zidovudine glucuronidation ([2]; inhibitor 100 μM) | residual metabolism (percentage of control), zidovudine glucuronidation ([2]; inhibitor 200 μM) | residual metabolism (percentage of control), zidovudine glucuronidation ([2]; inhibitor 500 μM) | residual metabolism (% of control), E2-17-β-D-glucuronide ([3]; inhibitor 50 μM) | residual metabolism (% of control), E2-3-β-D-glucuronide ([4]; liver 062101, inhibitor 50 μM) | residual metabolism (% of control), E2-17-β-D-glucuronide ([4]; liver 062101, inhibitor 50 μM) | residual metabolism (% of control), E2-3-β-D-glucuronide ([5]; inhibitor 50 μM) | residual metabolism (% of control), 2ME2 MG1 ([6]; inhibitor 25 μM) | residual metabolism (% of control), 2ME2 MG2 ([6]; inhibitor 25 μM) | residual metabolism (% of control), 2ME2 MG1 ([6]; inhibitor 50 μM) | residual metabolism (% of control), 2ME2 MG2 ([6]; inhibitor 50 μM) | residual metabolism (% of control), 2ME2 MG1 ([6]; inhibitor 100 μM) | residual metabolism (% of control), 2ME2 MG2 ([6]; inhibitor 100 μM) | activity at 15 min, 50 µM (UGT1A10; [7]) [%] | activity at 15 min, 50 µM (UGT1A10; [8]) [%] | other results
O=C(O[C@@H]1Cc2c(O)cc(O)cc2O[C@@H]1c1cc(O)c(O)c(O)c1)c1cc(O)c(O)c(O)c1 [Epigallocatechin gallate] | 38 (2) % | 35 (4) % | 70 (1) % | 60 (2) % | 39 (2) % | 18 (1) % | 82 (2) % | 45 (2) % | 70 (1) % | 46 (1) % | 61 (1) % | 79 (0) % | 48 (2) % | 71 (1) % | 29 (1) % | 35 (1) % |  |  | % of control metabolism, raloxifene G1 (UGT1A10; UGT1A10, inhibitor 25 μM): 68 (1) %; % of control metabolism, raloxifene G2 (UGT1A10; UGT1A10, inhibitor 25 μM): 73 (1) %; % of control metabolism, raloxifene G1 (UGT1A10; UGT1A10, inhibitor 50 μM): 37 (2) %; % of control metabolism, raloxifene G2 (UGT1A10; UGT1A10, inhibitor 50 μM): 37 (1) %; % of control metabolism, raloxifene G1 (UGT1A8; UGT1A8, inhibitor 50 μM): 69 (3) %; % of control metabolism, raloxifene G2 (UGT1A8; UGT1A8, inhibitor 50 μM): 54 (2) %
O=C(O[C@@H]1Cc2c(O)cc(O)cc2O[C@H]1c1cc(O)c(O)c(O)c1)c1cc(O)c(O)c(O)c1 [Gallocatechin gallate] | 10 (0), 10 (0) % | 10 (0), 10 (0) % | 66 (3) % | 56 (1) % and 59 (3) % | 49 (1) % and 40 (2) % |  | 69 (4) % | 33 (2) % | 55 (2) % | 24 (1) % | 33 (1) % | 73 (1) % | 21 (2) % | 61 (1) % | 9 (1) % | 36 (1) % | 49 | 48 | activity at 15 min, 25 µM (UGT1A10; human, Bacculosomes with recombinant human UGT1A10, pH 7.5, probe raloxifene 50 μM, formation of glucuronide G1, % of control metabolism, raloxifene G1, UGT1A10, inhibitor 25 μM): 64%; activity at 15 min, 25 µM (UGT1A10; human, Bacculosomes with recombinant human UGT1A10, pH 7.5, probe raloxifene 50 μM, formation of glucuronide G2, % of control metabolism, raloxifene G2, UGT1A10, inhibitor 25 μM): 68%; activity at 15 min, 50 µM (UGT1A8; formation of glucuronide G1, % of control metabolism, raloxifene G1, UGT1A8, inhibitor 50 μM): 36%; activity at 15 min, 50 µM (UGT1A8; formation of glucuronide G2, % of control metabolism, raloxifene G2, UGT1A8, inhibitor 50 μM): 35%
CC/C(=C(/CC)c1ccc(O)cc1)c1ccc(O)cc1 [Diethylstilbestrol, reference compound] |  |  | 50 (4) % and 44 (2) % | 34 (4) % | 15 (1) % | 0 (0) % |  |  |  |  |  |  |  |  |  |  | 50 | 39 | activity at 15 min, 10 µM (UGT1A10; human, Bacculosomes with recombinant human UGT1A10, pH 7.5, % of control metabolism, raloxifene glucuronide (one value printed, G1 or G2 not stated), UGT1A10, inhibitor 10 μM): 70%; activity at 15 min, 25 µM (UGT1A10; human, Bacculosomes with recombinant human UGT1A10, pH 7.5, % of control metabolism, raloxifene glucuronide (one value printed, G1 or G2 not stated), UGT1A10, inhibitor 25 μM): 74%; activity at 15 min, 10 µM (UGT1A8; formation of glucuronide G1, % of control metabolism, raloxifene G1, UGT1A8): 156%; activity at 15 min, 10 µM (UGT1A8; formation of glucuronide G2, % of control metabolism, raloxifene G2, UGT1A8): 73%; % of control metabolism, raloxifene G1 ([1]; inhibitor 10 μM): 78 (0) %; % of control metabolism, raloxifene G2 ([1]; inhibitor 10 μM): 90 (4) %; residual metabolism (% of control), E2-17-β-D-glucuronide ([3]; inhibitor 100 μM): 217 (5) %; residual metabolism (% of control), E2-3-β-D-glucuronide ([4]; liver 032101, inhibitor 1 μM): 85 (1), %; residual metabolism (% of control), E2-17-β-D-glucuronide ([4]; liver 032101, inhibitor 1 μM): 361 (6) %; residual metabolism (% of control), E2-3-β-D-glucuronide ([4]; liver 032101, inhibitor 10 μM): 57 (4), %; residual metabolism (% of control), E2-17-β-D-glucuronide ([4]; liver 032101, inhibitor 10 μM): 545 (32) %; residual metabolism (% of control), E2-3-β-D-glucuronide ([4]; liver 062101, inhibitor 1 μM): 86 (3) %; residual metabolism (% of control), E2-17-β-D-glucuronide ([4]; liver 062101, inhibitor 1 μM): 254 (2) %; residual metabolism (% of control), E2-3-β-D-glucuronide ([4]; liver 062101, inhibitor 10 μM): 71 (2) %; residual metabolism (% of control), E2-17-β-D-glucuronide ([4]; liver 062101, inhibitor 10 μM): 446 (7) %; residual metabolism (% of control), E2-3-β-D-glucuronide ([5]; inhibitor 100 μM): 69 (1), %
